Data on one compound can be found in patent US8399684B2, “Sulfonamide-based organocatalysts and method for their use” (State of Oregon acting by and through the State Board of …, priority 2007, dated 2013).

Converted amounts (≈) assume the structure as drawn.

A short description of data set [1]: Solubility of catalysts under the intramolecular Michael addition conditions. The format is physicochemical. To be noted: chlorinated reaction solvent, incl. lower temperatures; compared with tetrazole 11 and sulfonamides 12-14. The source says:
Proline sulfonamides were tried next as potential organocatalysts. While these ligands have shown promise in certain organocatalyzed reactions, they previously have proven problematic in facilitating Michael addition processes. Proline sulfonamides performed well, providing improved enantiomeric excess (e.e.) at room temperature (Entries 6-8). […] This sulfonamide 15 is readily accessible from the commercially available para-dodecylsulfonylchloride (16) and Cbz-protected proline 18 in 3 steps (Scheme 16).

Data set [2] in a line: Solubility of catalysts screened in methylene chloride (dichloromethane). The format is physicochemical. The source says:
In order to explore the effects of solvent polarity, the solubility of certain catalysts in methylene chloride was screened. Disclosed catalysts typically have a solubility of at least 10 milligrams/milliliter in dichloromethane, and typically at least 50 milligrams/milliliter in dichloromethane.
The absence of a significant non-polar region to the molecule may be the origin of this poor solubility. […] Sulfonamides are ideal choices for proline mimetics as their pKa has been documented to nicely match that of proline.
Ester-based catalysts according to the present disclosure also have markedly better solubilities than previously known compounds.

In the case of `CCCCCCCCCCCCc1ccc(S(=O)(=O)NC(=O)C2CCCN2)cc1` (centres unmarked) [Sulfonamide 15, N-(p-dodecylphenylsulfonyl)-2-Pyrrolidinecarboxamide], in data set [1], the “solubility (in words)” value is reported as “greatly improved solubility properties”. The solubility in dichloromethane in data set [2] was determined as 300 mg/mL (≈ 710 mM).
